Measured values from ChEMBL document CHEMBL4680243, “N-benzyl 4,4-disubstituted piperidines as a potent class of influenza H1N1 virus inhibitors showing a novel mechanism of hemagglutinin fusion peptide interaction” (Eur J Med Chem, 2020).

Legend:
Influenza A virus [1] = assay: Antiviral activity against Influenza A virus (A/PR 8/34 (H1N1)) infected in MDCK cells assessed as reduction in virus-induced cytopathic effect measured after 72 hrs by MTS assay; format: functional, organism-based; conditions: A/Puerto Rico/8/1934(H1N1)
Influenza A virus [2] = assay: Antiviral activity against Influenza A virus (A/PR 8/34 (H1N1)) infected in MDCK cells assessed as reduction in virus-induced cytopathic effect measured after 72 hrs by microscopic analysis; format: functional, organism-based; conditions: A/Puerto Rico/8/1934(H1N1)
[3] = Cytotoxicity against MDCK cells assessed as reduction in cell viability measured after 72 hrs by MTS assay; format: cell-based, Canis lupus familiaris; conditions: dog
[4] = Cytotoxicity against MDCK cells assessed as change in cell morphology measured after 72 hrs by microscopic analysis; format: cell-based, Canis lupus familiaris; conditions: dog
[5] = Selectivity index, ratio of CC50 for MDCK cells to EC50 for antiviral activity against Influenza A virus (A/Puerto Rico/8/1934(H1N1)) infected in MDCK cells; format: toxicity, cell-based; conditions: dog, read-out: Ratio CC50/EC50

SMILES | EC50 (Influenza A virus [1]) [µM] | EC50 (Influenza A virus [2]) [µM] | CC50 at 72 h [3] [µM] | MCC at 72 h [4] [µM] | selectivity ratio [5]
COC(=O)C[C@H](NC(=O)OC(C)(C)C)C(=O)N(Cc1ccc(F)cc1)C1(C(=O)NCc2ccccc2)CCN(Cc2cc(F)cc(F)c2)CC1 | > 100 | > 100 | 84 | 100 | –
COC(=O)C[C@H](NC(=O)OC(C)(C)C)C(=O)N(Cc1ccc(Cl)cc1)C1(C(=O)NCc2ccccc2)CCN(Cc2ccccc2)CC1 | 1.6 | 1.6 | 63 | 100 | ≤ 10
COC(=O)C[C@H](NC(=O)OC(C)(C)C)C(=O)NC1(C(=O)NCc2ccccc2)CCN(Cc2ccccc2)CC1 | > 100 | > 100 | 85 | 100 | –
CC(C)(C)NC(=O)C1(N(C(=O)[C@H](Cc2ccccc2)NC(=O)OC(C)(C)C)C2CC2)CCN(Cc2ccccc2)CC1 | 5.3 | 5.8 | 58 | 84 | ≤ 10
COC(=O)C[C@H](NC(=O)OC(C)(C)C)C(=O)N(C)C1(C(=O)NCc2ccccc2)CCN(Cc2ccccc2)CC1 | > 100 | 14 | 25 | 20 | –
COC(=O)C[C@H](NC(=O)OC(C)(C)C)C(=O)N(Cc1ccc(F)cc1)C1(C(=O)NCc2ccccc2)CCNCC1 | > 89 | > 73 | 48 | 100 | –
COC(=O)C[C@H](NC(=O)OC(C)(C)C)C(=O)N(Cc1ccc(F)c(F)c1)C1(C(=O)NCc2ccccc2)CCN(Cc2ccccc2)CC1 | > 100 | > 100 | 52 | 20 | –
C[C@H](NC(=O)OC(C)(C)C)C(=O)N(Cc1ccc(F)cc1)C1(C(=O)NCc2ccccc2)CCN(Cc2ccccc2)CC1 | 11 | 10 | > 100 | > 100 | –
COC(=O)C[C@H](NC(=O)OC(C)(C)C)C(=O)N(Cc1ccc(F)cc1)C(C)(C)C(=O)NCc1ccccc1 | > 100 | > 100 | 10 | 20 | –
COC(=O)C[C@H](NC(=O)OC(C)(C)C)C(=O)N(Cc1ccc(F)cc1)C1(C(=O)NC(C)(C)C)CCN(Cc2ccccc2)CC1 | > 100 | > 100 | 50 | 80 | –
COC(=O)C[C@H](NC(=O)OC(C)(C)C)C(=O)N(Cc1ccc(F)cc1)C1(C(=O)NCc2ccccc2)CCN(CCc2ccccc2)CC1 | > 100 | > 100 | 41 | 100 | –
COC(=O)C[C@H](NC(=O)OC(C)(C)C)C(=O)N(Cc1ccc(C(F)(F)F)cc1)C1(C(=O)NCc2ccccc2)CCN(Cc2ccccc2)CC1 | > 100 | > 100 | 54 | 84 | –
COC(=O)C[C@H](NC(=O)OC(C)(C)C)C(=O)N(Cc1ccc(F)cc1)C1(C(=O)NCc2ccccc2)CC[N+](C)(Cc2ccccc2)CC1 (stereo partly specified) | > 100 | > 100 | 55 | 100 | –
COC(=O)C[C@H](NC(=O)OC(C)(C)C)C(=O)N(Cc1ccccc1F)C1(C(=O)NCc2ccccc2)CCN(Cc2ccccc2)CC1 | 8.7 | 9.3 | 72 | 20 | ≤ 10
CCC(C)N(C(=O)[C@H](CC(=O)OC)NC(=O)OC(C)(C)C)C1(C(=O)NCc2ccccc2)CCN(Cc2ccccc2)CC1 (stereo partly specified) | > 100 | > 100 | 53 | 84 | –
COC(=O)C[C@H](NC(=O)OC(C)(C)C)C(=O)N(Cc1ccc(F)cc1)C1(C(=O)NC2CCCCC2)CCN(Cc2ccccc2)CC1 | > 100 | > 100 | 44 | 100 | –
COC(=O)C[C@H](NC(=O)OC(C)(C)C)C(=O)N(Cc1ccc(F)cc1)C1(C(=O)NCc2ccccc2)CCN(Cc2cccc(F)c2)CC1 | 1.6 | 1.6 | 73 | 84 | –
CC[C@H](C)[C@H](NC(=O)OCc1ccccc1)C(=O)N(C1CC1)C1(C(=O)NCc2ccccc2)CCN(Cc2ccccc2)CC1 | 9 | 5.1 | > 100 | > 100 | 8
